The values that follow come from PMC3608651, “A Broad Profile of Co-Dominant Epitopes Shapes the Peripheral Mycobacterium tuberculosis Specific CD8+ T-Cell Immune Response in South African Patients with Active Tuberculosis” (PLoS ONE, 2013).

Read-outs that look alike come from different tables or passages of the source.

What all share (format): binding
One assay addresses HLA-B*07:02 (Homo sapiens, UniProt P01889). The conditions noted are these: percent relative the binding of positive control peptide […]; duplicated experiments; positive binder >40%.
A further assay has as its target HLA-A*30:01 (Homo sapiens, UniProt P04439, D140H/D185E/E176W/F33S/G80R/H175R/K168Q/R138E/R41S). The following applies: duplicated experiments, positive binder >40%.
A further assay concerns the target HLA-A*68:01 (Homo sapiens, UniProt P04439, A269V/D185E/E176V/E277Q/E87N/F33Y/G231S/I121M/I166T/I218V/L180W/L300P/L318F/N151K/P208A/P217A/Q86R/R169H/T345S). The following applies: duplicated experiments, positive binder >40%.
The target of another assay is HLA-A*02:01 (Homo sapiens, UniProt P04439, D140Y/D185E/D98H/E176V/E277Q/G131W/G231S/I119V/I121R/I166T/I218V/L300P/L318F/N151K/N90K/P208A/P217A/Q86G/Q94H/R138H/R169H/T345S). The following applies: plate-bound monomer 0.5 µg/ml, duplicated experiments, positive binder >40%.
The next assay concerns the target HLA-C*07:01 (Homo sapiens, UniProt P10321, K90N/S123Y). The following applies: duplicated experiments, positive binder >40%.
The target in the next assay is HLA-A*30:02 (Homo sapiens, UniProt P04439, D101N/D140H/D185E/E176R/F33S/G80R/H175R/K168Q/Q94H/R138E/R41S/V100E). The conditions noted are these: duplicated experiments, positive binder >40%.
The target of another assay is HLA-A*24:02 (Homo sapiens, UniProt P04439, D101N/D140Y/D185E/E176V/E190D/F33S/G103R/G107R/I119L/I121M/I306V/K335N/L105A/L180Q/L300P/N151K/N90K/Q86E/Q94H/R106L/R138H/R89G/T104I/T345S/V100E/W191G/Y123F). The conditions noted are these: duplicated experiments, positive binder >40%.
Another assay concerns the target HLA-B*58:01 (Homo sapiens, UniProt P01889, A329T/C349S/D201E/D98Y/E176V/E187L/E204Q/E69T/G107R/I218V/I90N/K202T/L105A/L119I/N104I/N87E/Q89R/Q94S/R106L/R155S/R180L/R86G/S101N/S121R/S35A/S48A/T118I/V127L/V306I/V36M/Y140S/Y91M). The following applies: duplicated experiments, positive binder >40%.
The mark [1] stands for this setting: percent relative the binding of positive control peptide […].

As for GSAAIGLSM, the “Bind B*07:02” value at HLA-B*07:02 was found to be 38%. Further, at HLA-A*30:01 (setting [1]), the “Bind A*30:01” value stood at 0%. In addition, on HLA-A*68:01 (setting [1]), the “Bind A*68:01” value was 5%. The “Bind A*02:01” value on HLA-A*02:01 (setting [1]) came to 31%. Also, on HLA-C*07:01 (setting [1]), the “Bind C*07:01” value was 66%. On HLA-A*30:02 (setting [1]), the “Bind A*30:02” value came to 9%. The “Bind A*24:02” value at HLA-A*24:02 (setting [1]) is reported as 7%. Moreover, at HLA-B*58:01 (setting [1]), the “Bind B*58:01” value was 38%.
As for LAMGDAGGY, the “Bind B*07:02” value on HLA-B*07:02 is 2%. Moreover, the “Bind A*30:01” value at HLA-A*30:01 (setting [1]) is on record as 0%. For the same sequence, the “Bind A*68:01” value at HLA-A*68:01 (setting [1]) turned out to be 56%. Moreover, at HLA-A*02:01 (setting [1]), the “Bind A*02:01” value is 10%. Also, the “Bind C*07:01” value on HLA-C*07:01 (setting [1]) stood at 0%. The “Bind A*30:02” value at HLA-A*30:02 (setting [1]) amounted to 74%. For the same sequence, the “Bind A*24:02” value on HLA-A*24:02 (setting [1]) was found to be 0%. In addition, the “Bind B*58:01” value at HLA-B*58:01 (setting [1]) turned out to be 39%.
For the sequence DGLRAQDDY, on HLA-B*07:02, the “Bind B*07:02” value is on record as 1%. At HLA-A*30:01 (setting [1]), the “Bind A*30:01” value amounted to 2%. Besides, the “Bind A*68:01” value on HLA-A*68:01 (setting [1]) worked out at 4%. Moreover, on HLA-A*02:01 (setting [1]), the “Bind A*02:01” value stood at 0%. Further, on HLA-C*07:01 (setting [1]), the “Bind C*07:01” value is 0%. Moreover, the “Bind A*30:02” value on HLA-A*30:02 (setting [1]) stood at 58%. For the same sequence, the “Bind A*24:02” value at HLA-A*24:02 (setting [1]) is listed as 0%. Further, the “Bind B*58:01” value at HLA-B*58:01 (setting [1]) came out at 0%.
In the case of ELGGANIPA, the “Bind B*07:02” value on HLA-B*07:02 turned out to be 0%. Moreover, the “Bind A*30:01” value on HLA-A*30:01 (setting [1]) is 0%. Besides, the “Bind A*68:01” value on HLA-A*68:01 (setting [1]) came out at 0%. Also, the “Bind A*02:01” value at HLA-A*02:01 (setting [1]) stood at 47%. Besides, the “Bind C*07:01” value at HLA-C*07:01 (setting [1]) was 0%. In addition, at HLA-A*30:02 (setting [1]), the “Bind A*30:02” value was 0%. The “Bind A*24:02” value at HLA-A*24:02 (setting [1]) is given as 0%. In addition, the “Bind B*58:01” value at HLA-B*58:01 (setting [1]) was 0%.
Consider AIQGNVTSI [Rv3875_17-25], for which the “Bind B*07:02” value on HLA-B*07:02 was 4%. Also, the “Bind A*30:01” value on HLA-A*30:01 (percent relative the binding of positive control peptide KTKDIVNGL) was 0%. Also, the “Bind A*68:01” value at HLA-A*68:01 (percent relative the binding of positive control peptide KTGGPIYKR) was 29%. Besides, the “Bind A*02:01” value on HLA-A*02:01 (percent relative the binding of positive control peptide FLPSDFFPSV) was determined as 45%. Moreover, on HLA-C*07:01 (percent relative the binding of positive control peptide KYFDEHYEY), the “Bind C*07:01” value was 14%. Besides, the “Bind A*30:02” value at HLA-A*30:02 (percent relative the binding of positive control peptide KIQNFRVYY) amounted to 49%. The “Bind A*24:02” value on HLA-A*24:02 (percent relative the binding of positive control peptide RYLKDQQLL) came to 9%. Also, on HLA-B*58:01 (percent relative the binding of positive control peptide IAMESIVIW), the “Bind B*58:01” value came out at 21%.
Turning to YHPQQFIYA, the “Bind B*07:02” value at HLA-B*07:02 is given as 0%. Besides, the “Bind A*30:01” value on HLA-A*30:01 (setting [1]) was 3%. At HLA-A*68:01 (setting [1]), the “Bind A*68:01” value was determined as 0%. Besides, the “Bind A*02:01” value on HLA-A*02:01 (setting [1]) amounted to 49%. Further, on HLA-C*07:01 (setting [1]), the “Bind C*07:01” value is listed as 15%. For the same sequence, the “Bind A*30:02” value at HLA-A*30:02 (setting [1]) came out at 0%. Besides, the “Bind A*24:02” value on HLA-A*24:02 (setting [1]) turned out to be 0%. The “Bind B*58:01” value at HLA-B*58:01 (setting [1]) was determined as 9%.
For QSGLSIVMP, on HLA-B*07:02, the “Bind B*07:02” value turned out to be 0%. The “Bind A*30:01” value at HLA-A*30:01 (setting [1]) is 34%. The “Bind A*68:01” value at HLA-A*68:01 (setting [1]) stood at 0%. The “Bind A*02:01” value on HLA-A*02:01 (setting [1]) worked out at 30%. Moreover, the “Bind C*07:01” value at HLA-C*07:01 (setting [1]) was determined as 43%. Further, the “Bind A*30:02” value at HLA-A*30:02 (setting [1]) came to 0%. In addition, the “Bind A*24:02” value on HLA-A*24:02 (setting [1]) amounted to 0%. Moreover, the “Bind B*58:01” value at HLA-B*58:01 (setting [1]) worked out at 0%.
Regarding QLNAMKGDL, the “Bind B*07:02” value at HLA-B*07:02 was determined as 49%. At HLA-A*30:01 (setting [1]), the “Bind A*30:01” value was 10%. Besides, the “Bind A*68:01” value at HLA-A*68:01 (setting [1]) is reported as 0%. Also, the “Bind A*02:01” value at HLA-A*02:01 (setting [1]) was 71%. Moreover, on HLA-C*07:01 (setting [1]), the “Bind C*07:01” value was found to be 17%. The “Bind A*30:02” value at HLA-A*30:02 (setting [1]) was 0%. The “Bind A*24:02” value at HLA-A*24:02 (setting [1]) came out at 60%. In addition, the “Bind B*58:01” value on HLA-B*58:01 (setting [1]) is recorded as 0%.
Take IVMPVGGQS: the “Bind B*07:02” value at HLA-B*07:02 turned out to be 51%. The “Bind A*30:01” value at HLA-A*30:01 (setting [1]) came to 0%. Besides, at HLA-A*68:01 (setting [1]), the “Bind A*68:01” value came to 0%. The “Bind A*02:01” value on HLA-A*02:01 (setting [1]) stood at 44%. Besides, on HLA-C*07:01 (setting [1]), the “Bind C*07:01” value is 0%. Also, the “Bind A*30:02” value on HLA-A*30:02 (setting [1]) was 56%. In addition, at HLA-A*24:02 (setting [1]), the “Bind A*24:02” value amounted to 0%. For the same sequence, the “Bind B*58:01” value on HLA-B*58:01 (setting [1]) was determined as 0%.
With NFPPNGTHS, the “Bind B*07:02” value on HLA-B*07:02 is 0%. Further, at HLA-A*30:01 (setting [1]), the “Bind A*30:01” value was 11%. Moreover, the “Bind A*68:01” value on HLA-A*68:01 (setting [1]) is given as 0%. For the same sequence, the “Bind A*02:01” value at HLA-A*02:01 (setting [1]) is reported as 14%. For the same sequence, the “Bind C*07:01” value on HLA-C*07:01 (setting [1]) worked out at 0%. Also, the “Bind A*30:02” value on HLA-A*30:02 (setting [1]) is listed as 43%. On HLA-A*24:02 (setting [1]), the “Bind A*24:02” value was 0%. For the same sequence, the “Bind B*58:01” value at HLA-B*58:01 (setting [1]) turned out to be 26%.
